Where two headings read alike, the source gives them in different places.
Key:
[1] = Safety of topically applied PS in rabbits (slit lamp, intraocular pressure, necropsy); format: in vivo
Description: The Safety of Topically Applied PS.

[2] = system: ocular inflammation (cataract surgery plus LPS); experiment: Ocular inflammation after cataract surgery plus LPS in rabbits; format: in vivo, New Zealand white rabbits; details: PS 3.5% nanoparticles
Protocol: The anti-inflammatory effect of PS in New Zealand white rabbits was evaluated following cataract surgery and administration of the proinflammatory bacterial lipopolysaccharide (LPS). Briefly, the lens was removed by phacoemulsification and aspiration and replaced with the hydrophobic acrylic intraocular lens (AR40e, AMO). Upon completion of the operation, 1 μg of LPS dissolved in 10 μl PBS was injected into the vitreous to induce uveitis.
Rabbits were treated with PS 3.5% formulated in nanoparticles or vehicle (nanoparticles without PS) applied topically as eye drops three times per day. The first application was made within 1 h after completion of surgery. The rabbits were examined daily and the aqueous humor (AH) was sampled by needle aspiration on days 1, 3, and 5 following the injection of LPS. The number of infiltrating cells in the AH was determined following standard methods. On day 5, the rabbits were euthanized and the implanted lens was removed and fixed in 2.5% glutaraldehyde and the number of inflammatory cells attached to the lens was examined under a dissecting microscope.

Staphylococcus aureus = experiment: Disk diffusion method, antibiotic disks impregnated with PS; format: cell-based; details: PS 1-9% vs 0% PS
Protocol: It was assessed whether the combination of PS with antibiotics for their topical application to the eye affects the antimicrobial activity of the antibiotics. To this end, the disk diffusion method was used.
Briefly, Staphylococcus aureus grown in culture was seeded evenly on Muller-Hinton II Agar plates (BD Diagnostic Systems) at the standard concentration of 2×10^8 colony-forming units per mL. Antibiotic antimicrobial susceptibility disks (Thermo Scientific Oxoid™) were impregnated with one of six concentrations of PS (0%, 1%, 2%, 3%, 6%, 9%); 10 μL of each was evenly dispensed on each disk. An additional control was disks with no PS and no vehicle. The growth of bacteria around each disk was monitored and the area of “no growth” around each disk was measured 24 h later.

[3] = PS biodistribution after topical Poloxamer 407-based in-situ gel; format: in vivo, New Zealand white rabbits; details: Poloxamer 407 gel, eye drops; for concentration at 3 h: New Zealand white, rabbit, topical, 5.4 % PS in formulation
Protocol: Composition: 5.4% PS; 20% Poloxamer 407; 12% Vitamin E TPGS.
Preparation Method: Poloxamer 407 solution (thermosensitive gel solution) was prepared using a “cold method.” The required amount of Poloxamer 407 and other excipients were dissolved in cold double-distilled water at 4° C. The mixture was stirred continuously until a clear solution was obtained. Then the appropriate amount of PS was dissolved in cold PM solution with continuous stirring at room temperature until a clear solution formed.
Results: PS in this formulation was administered topically as eye drops to the eyes of New Zealand white rabbits. The biodistribution of PS in ocular tissues at 3 h and 6 h was determined by HPLC.

[4] = Biodistribution of PS nanoparticles after intravitreal injection; format: in vivo, New Zealand white rabbits; details: New Zealand white, rabbit
Protocol: Biodistribution of PS after intravitreal injection: PS formulated in nanoparticles as above was injected directly into the vitreous of New Zealand white rabbits. The biodistribution of PS in ocular tissues at the indicated time points post administration was determined by HPLC.

[5] = weekly during 1-month application
[6] = aqueous humor, other: intravitreal, 2% PS Nanoparticle Soln., read-out: PS in Aqueous humor
[7] = cornea, other: intravitreal, 0.2% PS Nanoparticle Soln., read-out: PS in Cornea
[8] = cornea, other: intravitreal, 2% PS Nanoparticle Soln., read-out: PS in Cornea
[9] = retina, other: intravitreal, 0.2% PS Nanoparticle Soln., read-out: PS in Retina
[10] = retina, other: intravitreal, 2% PS Nanoparticle Soln., read-out: PS in Retina
[11] = sclera, other: intravitreal, 2% PS Nanoparticle Soln., read-out: PS in Sclera
[12] = vitreous body, other: intravitreal, 0.2% PS Nanoparticle Soln., read-out: PS in Vitreous body

## CCOP(=O)(OCC)OCCCCOC(=O)CC1=C(C)/C(=C/c2ccc([S+](C)[O-])cc2)c2ccc(F)cc21 (stereo not shown) [PS, phosphosulindac]
[1]; 1-month application
  signs of uveitis: No animal developed signs of uveitis
[1]; Tonopen, 1-month application
  Intraocular pressure: remained normal
[1]; rabbits, topical
  tolerability of ocular application: very well tolerated
[1]; [5]
  slit lamp: corneal abnormalities (staining defects, vascularization, opacification, epithelial defects, stromal thinning, melts): nor were there signs of corneal abnormalities
  slit lamp: follicular/papillary response or injection of the conjunctiva: no evidence of follicular/papillary response or injection of the conjunctiva
[2]; day 3, vehicle 24−35×10^4/ml
  number of inflammatory cells in AH: < 70000 mL⁻¹
[2]; day 5
  inflammatory cells attached to implanted lens: very few or no cells
[2]; eye drops three times per day, first 24 h
  ocular inflammation (clinical appearance): essentially eliminated
Staphylococcus aureus
  effect of PS on the inhibition zone of each antibiotic: did not appreciably change
[3]; 3 h, 5.4% PS
  PS in Aqueous humor: 0.3 µM
  PS in Conjunctiva: 5.6 µM
[3]; 6 h, 5.4% PS
  PS in Aqueous humor: 0.3 µM
  PS in Conjunctiva: 10.7 µM
  PS in Cornea: 13.6 µM
[3]; choroid, 3 h, read-out: PS in Choroid
  concentration at 3 h: 0.9 µM
[3]; cornea, 3 h, read-out: PS in Cornea
  concentration at 3 h: 45.1 µM
[4]; aqueous humor, other: intravitreal, 0.2% PS Nanoparticle Soln., read-out: PS in Aqueous humor
  concentration at 0.5 h: 0 µM
[4]; [6]
  concentration at 0.5 h: 0 µM
  concentration at 1 h: 1.3 µM
[4]; [7]
  concentration at 0.5 h: 23.5 µM
  concentration at 1 h: 22.4 µM
[4]; [8]
  concentration at 0.5 h: 187 µM
  concentration at 1 h: 147 µM
[4]; [9]
  concentration at 0.5 h: 187 µM
  concentration at 1 h: 109 µM
[4]; [10]
  concentration at 0.5 h: 376 µM
  concentration at 1 h: 220 µM
[4]; sclera, other: intravitreal, 0.2% PS Nanoparticle Soln., read-out: PS in Sclera
  concentration at 0.5 h: 39.8 µM
[4]; [11]
  concentration at 0.5 h: 224 µM
  concentration at 1 h: 180 µM
[4]; vitreous body, other: intravitreal injection, 2 % PS (nanoparticle solution; injected volume not stated), 2% PS Nanoparticle Soln., read-out: PS in Vitreous body
  concentration at 0.5 h: 125 µM
[4]; [12]
  concentration at 0.5 h: 198 µM
  concentration at 1 h: 56.2 µM
[4]; vitreous body, other: intravitreal, 2% PS Nanoparticle Soln., read-out: PS in Vitreous body
  concentration at 1 h: 34 µM

Source: patent US20220233556A1, “COMPOSITIONS AND METHODS FOR TREATING OPHTHALMIC CONDITIONS” (Medicon Pharmaceuticals, Inc., priority 2017, published 2022)
